Test results taken from US10221168B1, “Small-compound enhancers for functional O-mannosylation of alpha-dystroglycan, and uses thereof” (priority 2015, dated 2019).

The compounds below were run on FOG of α-DG on the cell surfaces (assay: Cell-based HTS/HCS assay, IIH6 antibody as probe (EC1.5)). Conditions: concentration of the compound required to enhance the FOG of α-DG by 50% over the controls; cell-based assays in vitro.
Excerpt: Protein glycosylation is a multiple-step process that requires a large number of proteins in the secretory pathway of the cells. Thus we chose cell-based assay because our goal is to identify enhancer the FOG of α-DG on the cell surfaces. The assay system is HTS/HCS friendly and can adapt to various cell lines including myotubes as well as various readout methods including AlphaScreen, fluorescence density and HCS/fluorescence imaging. The standard operation protocol (SOP) for adhesion cells is described below and the FIG. 1 illustrates the assay process using myoblasts as the controls and screening cells and the IIH6 antibody as the probe. Other adhesion cells such CHO (Chinese hamster ovary) cell line can be implemented into this assay by simply removing the differentiation step.
Cell cultures: All cells are cultured at 37° C., 5% CO2, in appropriate media (F-12 for epithelial cells and DMEM for myoblasts) supplement with 10-20% fetal calf serum (FCS) and 1% antibiotics. […] The cells will be detached with trypsin EDTA and suspended in the cell culture media. The cells will be counted and seeded into the multiple-well plates as desired. Myotubes formation: When the myoblasts reach confluence, change the growth media to differential media (DEME with 2% horse serum) and incubate for 4-5 days.
The cells were fixed, permeablized, and then blocked with 10% BSA in PBS for 1 hour. […] After washing the cells with PBS for 2 times, the DAPI was used to stain the cells for 15 mins and wash 3 times with PBS. The images were captured with an inverted Olympus fluorescent microscope. For small compound localization experiment, the cells are incubated with the biotin conjugated compounds and then the cells were washed and incubated with streptavidin-Dye and then images will be captured to see the location of the compound-target-protein.
H, EC1.5<5 μM; M, EC1.5-20 μM; L, EC1.5 20-50 μM; VL, EC1.5>50 μM.

Row | Structure (SMILES) | Activity (EC1.5)
1 | CCC(c1nnnn1Cc1cccs1)N1CCN(c2nc3c(F)c(N)ccc3s2)CC1 (centres unmarked) [Compound 47, 5-amino-4-fluoro-2-(4-(1-(1-(thiophen-2-ylmethyl)-1H-tetrazol-5-yl)propyl)piperazin-1-yl)benzothiazole] | H (EC1.5<5 μM)
2 | CCC(c1nnnn1Cc1cccs1)N1CCN(c2nc3c(F)c(N)cc(F)c3s2)CC1 (centres unmarked) [Compound 48, 5-amino-4,7-difluoro-2-(4-(1-(1-(thiophen-2-ylmethyl)-1H-tetrazol-5-yl)propyl)piperazin-1-yl)benzothiazole] | H (EC1.5<5 μM)
3 | CCC(c1nnnn1Cc1cccs1)N1CCN(c2nc3ccc(N)c(F)c3s2)CC1 (centres unmarked) [Compound 49, 6-amino-7-fluoro-2-(4-(1-(1-(thiophen-2-ylmethyl)-1H-tetrazol-5-yl)propyl)piperazin-1-yl)benzothiazole] | H (EC1.5<5 μM)
4 | CCC(c1nnnn1Cc1cccs1)N1CCN(c2nc3c(F)cc(N)cc3s2)CC1 (centres unmarked) [Compound 50, 6-amino-4-fluoro-2-(4-(1-(1-(thiophen-2-ylmethyl)-1H-tetrazol-5-yl)propyl)piperazin-1-yl)benzothiazole] | H (EC1.5<5 μM)
5 | CCC(c1nnnn1Cc1cccs1)N1CCN(c2nc3c(F)cc(N)c(F)c3s2)CC1 (centres unmarked) [Compound 51, 6-amino-4,7-difluoro-2-(4-(1-(1-(thiophen-2-ylmethyl)-1H-tetrazol-5-yl)propyl)piperazin-1-yl)benzothiazole] | H (EC1.5<5 μM)
6 | CCC(c1nnnn1Cc1cccs1)N1CCN(c2nc3c(F)c(N)c(N)c(F)c3s2)CC1 (centres unmarked) [Compound 52, 5,6-diamino-4,7-difluoro-2-(4-(1-(1-(thiophen-2-ylmethyl)-1H-tetrazol-5-yl)propyl)piperazin-1-yl)benzothiazole] | H (EC1.5<5 μM)
7 | CCC(c1nnnn1CCc1cccs1)N1CCN(c2nc3cc(N)c(N)cc3s2)CC1 (centres unmarked) [Compound 53, 5,6-diamino-2-(4-(1-(1-(thiophen-2-ylethyl)-1H-tetrazol-5-yl)propyl)piperazin-1-yl)benzothiazole] | H (EC1.5<5 μM)
8 | CCC(c1nnnn1Cc1cccs1)N1CCN(c2nc3cc(N)c(N)cc3s2)CC1 (centres unmarked) [Compound 54, 5,6-diamino-2-(4-(1-(1-(thiophen-2-ylmethyl)-1H-tetrazol-5-yl)propyl)piperazin-1-yl)benzothiazole] | H (EC1.5<5 μM)
9 | CCC(c1nnnn1CCc1cccs1)N1CCN(c2nc3cc(N)cc(F)c3s2)CC1 (centres unmarked) [Compound 55, 5-amino-7-fluoro-2-(4-(1-(1-(thiophen-2-ylethyl)-1H-tetrazol-5-yl)propyl)piperazin-1-yl)benzothiazole] | H (EC1.5<5 μM)
10 | CCC(c1nnnn1Cc1ccc(C)s1)N1CCN(c2nc3cc(N)cc(F)c3s2)CC1 (centres unmarked) [Compound 56, 5-amino-7-fluoro-2-(4-(1-(1-(5-methyl-thiophen-2-ylmethyl)-1H-tetrazol-5-yl)propyl)piperazin-1-yl)benzothiazole] | H (EC1.5<5 μM)
11 | CCC(c1nnnn1Cc1ccc(F)s1)N1CCN(c2nc3cc(N)cc(F)c3s2)CC1 (centres unmarked) [Compound 57, 5-amino-7-fluoro-2-(4-(1-(1-(5-fluoro-thiophen-2-ylmethyl)-1H-tetrazol-5-yl)propyl)piperazin-1-yl)benzothiazole] | H (EC1.5<5 μM)
12 | CCC(c1nnnn1Cc1ccc([N+](=O)[O-])s1)N1CCN(c2nc3cc(N)cc(F)c3s2)CC1 (centres unmarked) [Compound 58, 5-amino-7-fluoro-2-(4-(1-(1-(5-nitro-thiophen-2-ylmethyl)-1H-tetrazol-5-yl)propyl)piperazin-1-yl)benzothiazole] | H (EC1.5<5 μM)
13 | CCC(c1nnnn1Cc1ccc(F)s1)N1CCN(c2nc3cc(N)cc(F)c3s2)C(C)C1 (centres unmarked) [Compound 59, 5-amino-7-fluoro-2-(4-(1-(1-(5-fluoro-thiophen-2-ylmethyl)-1H-tetrazol-5-yl)propyl)-2-methyl-piperazin-1-yl)benzothiazole] | H (EC1.5<5 μM)
14 | CCC(c1nnnn1CCc1ccc(F)s1)N1CCN(c2nc3cc(N)cc(F)c3s2)C(C)C1 (centres unmarked) [Compound 60, 5-amino-7-fluoro-2-(4-(1-(1-(5-fluoro-thiophen-2-ylethyl)-1H-tetrazol-5-yl)propyl)-2-methyl-piperazin-1-yl)benzothiazole] | H (EC1.5<5 μM)
15 | CCC(c1nnnn1CCc1cccs1)N1CCN(C2Sc3c(F)cc(N)cc3N2N)CC1 (centres unmarked) [Compound 61, 5-amino-7-fluoro-3-amino-2-(4-(1-(1-(thiophen-2-ylethyl)-1H-tetrazol-5-yl)propyl)piperazin-1-yl)benzothiazole] | H (EC1.5<5 μM)
16 | CCC(c1nnnn1CCc1cccs1)N1CCN(C2Sc3c(F)cc(N)cc3N2[N+](=O)[O-])CC1 (centres unmarked) [Compound 62, 5-amino-7-fluoro-3-nitro-2-(4-(1-(1-(thiophen-2-ylethyl)-1H-tetrazol-5-yl)propyl)piperazin-1-yl)benzothiazole] | H (EC1.5<5 μM)
17 | CCC(c1nnnn1CCc1cccs1)N1CCN(C2Sc3c(F)cc(N)cc3N2C)CC1 (centres unmarked) [Compound 63, 5-amino-7-fluoro-3-methyl-2-(4-(1-(1-(thiophen-2-ylethyl)-1H-tetrazol-5-yl)propyl)piperazin-1-yl)benzothiazole] | H (EC1.5<5 μM)
18 | CCC(c1nnnn1CCc1cccs1)N1CCN(c2nc3cc(N)cc(F)c3s2)CC1[N+](=O)[O-] (centres unmarked) [Compound 64, 5-amino-7-fluoro-2-(4-(1-(1-(thiophen-2-ylethyl)-1H-tetrazol-5-yl)propyl)-3-nitro-piperazin-1-yl)benzothiazole] | H (EC1.5<5 μM)
19 | CCC(c1nnnn1CCc1cccs1)N1CCN(c2nc3cc(N)cc(F)c3s2)CC1[N+](=O)[O-] (centres unmarked) [Compound 65, 5-amino-7-fluoro-2-(4-(1-(1-(thiophen-2-ylethyl)-1H-tetrazol-5-yl)propyl)-5-nitro-piperazin-1-yl)benzothiazole] | H (EC1.5<5 μM)
20 | CCC(c1nnnn1CCc1cccs1)N1CCN(c2nc3cc(N)cc(F)c3s2)C(N)C1 (centres unmarked) [Compound 66, 5-amino-7-fluoro-2-(4-(1-(1-(thiophen-2-ylethyl)-1H-tetrazol-5-yl)propyl)-2-amino-piperazin-1-yl)benzothiazole] | H (EC1.5<5 μM)
21 | CCC(c1nnnn1CCc1cccs1)N1CCN(c2nc3cc(N)cc(F)c3s2)C([N+](=O)[O-])C1 (centres unmarked) [Compound 67, 5-amino-7-fluoro-2-(4-(1-(1-(thiophen-2-ylethyl)-1H.tetrazol-5-yl)propyl)-2-nitro-piperazin-1-yl)benzothiazole] | H (EC1.5<5 μM)
22 | CCC(c1nnnn1Cc1cccs1)C1CCCC(c2nc3cc(N)cc(F)c3s2)CC1 (centres unmarked) [Compound 68, 5-amino-7-fluoro-2-(4-(1-(1-(thiophen-2-ylmethyl)-1H-tetrazol-5-yl)propyl)cycloheptyl)benzothiazole] | H (EC1.5<5 μM)
23 | CCC(c1nnnn1Cc1cccs1)C1CCN(c2nc3cc(N)cc(F)c3s2)C1 (centres unmarked) [Compound 69, 5-amino-7-fluoro-2-(4-(1-(1-(thiophen-2-ylmethyl)-1H-tetrazol-5-yl)propyl)pyrrolidine-1-yl)benzothiazole] | H (EC1.5<5 μM)
24 | CCC(c1nnnn1Cc1cccs1)C1CCCN(c2nc3cc(N)cc(F)c3s2)CC1 (centres unmarked) [Compound 70, 5 amino-7-fluoro-2-(4-(1-(1-(thiophen-2-ylmethyl)-1H-tetrazol-5-yl)propyl)azepane-1-yl)benzothiazole] | H (EC1.5<5 μM)
25 | CCC(c1nnnn1Cc1cccs1)N1CCCN(c2nc3cc(N)cc(F)c3s2)CC1 (centres unmarked) [Compound 71, 5-amino-7-fluoro-2-(4-(1-(1-(thiophen-2-ylmethyl)-1H-tetrazol-5-yl)propyl)1,4-diazepane-1-yl)benzothiazole] | H (EC1.5<5 μM)
26 | CCC(c1nnnn1Cc1cccs1)N1CCCN(c2nc3cc(N)cc(F)c3s2)CCC1 (centres unmarked) [Compound 72, 5-amino-7-fluoro-2-(5-(1-(1-(thiophen-2-ylmethyl)-1H-tetrazol-5-yl)propyl)1,5-diazocane-1-yl)benzothiazole] | H (EC1.5<5 μM)
27 | CCC(c1nnnn1Cc1ccns1)N1CCN(c2nc3cc(N)cc(F)c3s2)CC1 (centres unmarked) [Compound 73, 5-amino-7-fluoro-2-(4-(1-(1-(isothiazol-5-ylmethyl)-1H-tetrazol-5-yl)propyl)piperazin-1-yl)benzothiazole] | H (EC1.5<5 μM)
28 | CCC(c1nnnn1CCc1ccns1)N1CCN(c2nc3cc(N)cc(F)c3s2)CC1 (centres unmarked) [Compound 74, 5-amino-7-fluoro-2-(4-(1-(1-(isothiazol-5-ylethyl)-1H-tetrazol-5-yl)propyl)piperazin-1-yl)benzothiazole] | H (EC1.5<5 μM)
29 | CCC(c1nnnn1CCc1cccs1)N1CCCN(c2nc3cc(N)cc(F)c3s2)CC1 (centres unmarked) [Compound 75, 5-amino-7-fluoro-2-(4-(1-(1-(thiophen-2-ylethyl)-1H-tetrazol-5-yl)propyl)1,4-diazepane-1-yl)benzothiazole] | H (EC1.5<5 μM)
